Patent publication US12648928B2, “Intervention strategy for prevention or treatment of diabetes mellitus, autoimmune disease, inflammatory disease or cardiovascular disease” (ACADEMISCH MEDISCH CENTRUM, priority 2020, dated 2026)

Assays:
murine DC = assay: In vitro stimulation of murine dendritic cells, cytokine secretion; format: cell-based; settings: GM-CSF differentiated DC
Protocol: Bone marrow-derived macrophages (BMDM) and DC (BMDC) were obtained by differentiating freshly isolated BM cells from femur and tibia bones (as above described) of C57/B16 mice (N=3 per experiment). For BMDM, BM cells were seeded at 3×10^6 cells per 10 cm dish and cultured for 7 days in 12 ml RPMI1640 medium with 20% fetal bovine serum, 30% L-929 cell conditioned media, as source of murine macrophage colony-stimulating factor (M-CSF). For BMDC, BM cells were seeded at 0.5×10^6/ml cells in 25 ml in 10 cm dishes and cultured for 7 days in presence of GM-CSF in 5% FBS-RPMI1640 medium. After differentiation, BMDM/DCs were harvested, counted and seeded at a density of 1×10^5 cells per well in a F-bottom 96-well plate and left to adhere for 20 hours before experiments were performed. […]
Specific ELISAs (R&D Systems) were utilized to measure the concentration of TNFα, IFNβ, and IFNγ in cell supernatant of murine monocytes, macrophages ad T cells, respectively, according to the manufacturer's instructions. The concentration of insulin after 24-hour treatment with metabolites or after GSIS were determined using Rat insulin ELISA (Mercodia) according to the manufacturer's instructions. GSIS was calculated by subtracting the concentration of insulin at 1 mM glucose to the insulin rate at 22 mM glucose. […]

INS1E cells = assay: In vitro stimulation of pancreatic beta cells: gene expression and insulin secretion; format: cell-based, rat
Protocol: INS1E cells (rat pancreatic beta-cell line) were maintained in complete RPMI1640 supplemented with 5% Fetal Bovine Serum, 2 mM L-glutamine, 5 μM beta-mercaptoethanol, 1 mM sodium pyruvate, 10 mM HEPES, 100 units/ml of penicillin and 100 μg/ml streptomycin. INSIE cells were seeded in 48-well plates at a density of 1×10^5 cells per well and left resting for one day. Subsequently, medium was replaced with 0.5 ml/well of INS1E complete RPMI1640 medium containing vehicle or the metabolites: 6-BT (1/10/25 μM), LysoPC(20:0) (5/10/50 μM), or MA-GPC (10/50/100 μM). After 24 hours, cells and supernatant were harvested for further analysis (gene expression and insulin secretion, respectively) and stored at −80° C. Cells were lysed in Tripure isolation reagent (Roche) before storage.
For glucose-stimulated insulin secretion (GSIS) assay, cells were preincubated in a Krebs-Ringer bicarbonate buffer (KRB) [115 mM NaCl, 5 mM KCl, 2.56 mM CaCl2), 1 mM MgCl2, 10 mM NaHCO3, 15 mM HEPES, and 0.3% of BSA (pH 7.4)] for 30 min at 37° C., following by stimulation with 1 mM glucose in KRB for 1 hour (0.5 ml/well) and stimulation with 22 mM glucose in KRB for another hour (0.5 ml/well) at 37° C. Supernatant was recovered after treatment with 1 mM glucose (Sigma-Aldrich) and 22 mM glucose and cells stored at −80° C. GSIS was performed on beta cells after treatment for 24-hour treatment with 10 μM 6-BT.
Specific ELISAs (R&D Systems) were utilized to measure the concentration of TNFα, IFNβ, and IFNγ in cell supernatant of murine monocytes, macrophages ad T cells, respectively, according to the manufacturer's instructions. The concentration of insulin after 24-hour treatment with metabolites or after GSIS were determined using Rat insulin ELISA (Mercodia) according to the manufacturer's instructions. GSIS was calculated by subtracting the concentration of insulin at 1 mM glucose to the insulin rate at 22 mM glucose.
Total RNA was extracted from Tripure isolation reagent cell lysates. RNA was converted to cDNA by with iScript kit (BioRad). Quantitative polymerase chain reaction (qPCR) was performed using SYBR Green-SensiMix (Bioline) on a CFX384 Touch Real-Time PCR Detection System (BioRad). The delta delta Ct method was used to calculate gene expression as fold-change compared to control (unstimulated conditions).
Given the positive association between plasma 6-BT levels and C-peptide concentrations (found in the clinical study), it was then questioned whether 6-BT can exert a direct effect on beta cells. Indeed, it is seen here that 6-BT induces, in IS1E beta cells, the gene expression of the transcription factors PDX1 and MAFA, which are important for beta cell maturation and functionality.

NF-κB = NF-κB reporter macrophage luciferase assay (RAW264.7); format: cell-based, murine
Protocol: NF-κB signaling activation was assessed by luciferase activity assay. RAW264.7 cells stably transfected with the 3×-κB-luc plasmid (DNA construct containing three NF-κB sites from the Ig κ light chain promoter coupled to the gene encoding firefly luciferase) were grown in DMEM medium supplemented with 10% heat-inactivated fetal bovine serum, penicillin (100 U/ml), streptomycin (100 μg/ml), L-glutamine (2 mM). Cells were seeded in F-bottom 96-well […] metabolites at different concentrations (6-BT 0,1-100 μM, LysoPC(20:0) 1-10 μM, 16:0-18:2 PE 1-50 μM, MA-GPC 1-100 μM). Afterwards, cells were lysed with 25 μl/well 1×passive lysis buffer and firefly luciferase activity was measured by LUCIFERASE® Assay System (Promega, E1500) on a GLOMAX @-Multi Detection System (Promega).

With `N[C@@H](Cc1c[nH]c2cc(Br)ccc12)C(=O)O` [6-BT, 6-bromotryptophan] the “secretion of IFNbeta by DC” value (murine DC; TLR3 activation with 10 μg/ml poly(I.C) (FIG. 15)) was “inhibits the secretion”, the “secretion of TNFα by DC” value (murine DC; TLR4 activation with 100 μg/ml LPS (FIG. 15)) was “inhibits the secretion” and the pancreatic beta-cell function (INS1E cells; INS1e beta-cells treated for 24 hours, beta cell differentiation markers (FIGS. 12 and 13)) was “enhances pancreatic beta-cell function”. For the same compound, the “gene expression of the transcription factor MAFA” value (INS1E cells; beta cells (FIG. 17)) was “induces”, the “gene expression of the transcription factor PDX1” value (INS1E cells; beta cells (FIG. 17)) was “induces” and the “insulin secretion at steady-state” value (INS1E cells; beta cells, 24-hour treatment (FIG. 17)) was “promotes insulin secretion”. For the same compound, the glucose-stimulated insulin secretion (INS1E cells; difference between insulin release at 1 mM and 22 mM glucose, 24-hour treatment with 10 μM) was “promotes insulin secretion”, the “NFκB pathway activation in macrophages” value (NF-κB; RAW264.7 3x-κB-luc, LPS 10/100 ng/ml 2 hours, different doses (FIG. 7)) was “can inhibit NFκB pathway activation” and the “transcriptional activity of the NFkB complex” value (NF-κB; RAW264.7 NFkB luciferase reporter, overnight exposure 10-200 μM, 2 hours LPS (10 μg/ml) (FIG. 19)) was “inhibits the transcriptional activity of the NFkB complex in a dose-dependent manner”.
